Assay results from patent US20060035938A1, “2-Pyridone derivatives as inhibitors of neutrophile elastase” (priority 2002, published 2006).

target: T1, Human Neutrophil Elastase (HNE) (Homo sapiens, UniProt P08246); assay: Human Neutrophil Elastase Quenched-FRET Assay; type: biochemical; settings: read-out: Inhibition of Human Neutrophil Elastase IC50
T1 construct: Human Neutrophil Elastase (HNE) purified from serum; purchased Calbiochem 324681; host or cells: purified from human serum (so in the source); not recombinant
T1 sequence (P08246 30-267): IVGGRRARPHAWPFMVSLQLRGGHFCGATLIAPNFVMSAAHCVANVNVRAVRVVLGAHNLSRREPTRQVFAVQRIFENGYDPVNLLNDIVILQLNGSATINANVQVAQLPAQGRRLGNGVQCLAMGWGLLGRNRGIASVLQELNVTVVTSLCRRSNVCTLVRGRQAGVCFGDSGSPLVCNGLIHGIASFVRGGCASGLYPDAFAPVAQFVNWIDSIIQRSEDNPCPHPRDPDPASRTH
Procedure: Human Neutrophil Elastase Quenched-FRET Assay
The assay uses Human Neutrophil Elastase (HNE) purified from serum (Calbiochem art. 324681; Ref. Baugh, R J. et al., 1976, Biochemistry. 15, 836-841). HNB was stored in 50 mM NaOAc, 200 mM NaCl, pH 5.5 with added 30% glycerol at −20° C. The protease substrate used was Elastase Substrate V Fluorogenic, MeOSuc-AAPV-AMC (Calbiochem art. 324740; Ref. Castillo, M. J. et al., 1979, Anal. Biochem. 99, 53-64). The substrate was stored in DMSO at −20° C. The assay additions were as follows: Test compounds and controls were added to black 96-well flat-bottom plates (Greiner 655076), 1 μL in 100% DMSO, followed by 30 μL HNE in assay buffer with 0.01% TritonX-100. The assay buffer constitution was: 100 mM Tris (pH 7.5) and 500 mM NaCl. The enzyme and the compounds were incubated at room temperature for 15 minutes. Then 30 μl substrate in assay buffer was added The assay was stopped after 30 minutes incubation at room temperature by adding 60 μl stop solution (140 mM acetic acid, 200 mM sodium monochloroacetate, 60 mM sodium acetate, pH 4.3). Fluorescence was measured on a Wallac 1420 Victor 2 instrument at settings: Exitation 380 nm, Emission 460 nm. IC50 values were determined using xlfit curve fitting using model 205.

SMILES | IC50
O=C(NCc1ccc2c(c1)CCO2)c1c[nH]c(=O)n(-c2cccc(C(F)(F)F)c2)c1=O [N-(2,3-Dihydro-1-benzofuran-5-ylmethyl)-2,4-dioxo-3-[3-(trifluoromethyl)phenyl]-1,2,3,4-tetrahydropyrimidine-5-carboxamide] | 2030 nM
COc1ccc(CNC(=O)c2ccc(C)n(-c3cccc(Br)c3)c2=O)cc1 [1-(3-Bromophenyl)-N-(4-methoxybenzyl)-6-methyl-2-oxo-1,2-dihydropyridine-3-carboxamide] | 353 nM
Cc1cc(CNC(=O)c2ccc(C)n(-c3cccc(C(F)(F)F)c3)c2=O)no1 [6-Methyl-N-[(5-methylisoxazol-3-yl)methyl]-2-oxo-1-[3-(trifluoromethyl)phenyl]-1,2-dihydropyridine-3-carboxamide] | 318 nM
COc1cccc(CNC(=O)c2ccc(C)n(-c3cccc(C(F)(F)F)c3)c2=O)c1OC [N-(2,3-Dimethoxybenzyl)-6-methyl-2-oxo-1-[3-(trifluoromethyl)phenyl]-1,2-dihydropyridine-3-carboxamide] | 701 nM
